Experimental data taken from US20120076899A1, “SHELF STABLE MONATIN SWEETENED BEVERAGE” (Cargill, Incorporated, priority 2009, published 2012).

Assay: Presence of 3-methyl indole in stored monatin samples (GC, mass spectrometry, olfactometry)
Type: physicochemical
Details: not detected in the initial samples (Day 0) nor in samples stored in the dark
From the text: A compound described as having a musty flavor and odor during some of the organoleptic evaluations is described herein. […] The compound (3-methylindole; 3-MI; skatole) was identified using gas chromatography (GC), mass spectrometry, and olfactometry based on its retention time, mass spectra, and odor profile using the following method.
The volatile components from a sample were purged onto an absorbent and then thermally desorb them into the cold GC inlet for subsequent separation and identification by mass spectrometry. Simultaneously, the GC column effluent was split between the mass spec and olfactory port to determine the specific odor characteristics for compounds that contribute to the overall odor of the sample.
Each sample was extracted and analyzed in duplicate. […]
Each reconstructed total ion current chromatogram (RTICC) was manually reprocessed to 1) identify the compounds by using olfactory and mass spectral library matching. Compounds that were not detected by olfactory but which gave significant response were also identified, and 2) integrate the peaks to obtain areas for relative comparison to the other samples analyzed. […] Corrected areas for each compound were then converted to graphical form to more easily compare samples analyzed during the test.

- detection of 3-methylindole in stored monatin samples: only found in samples exposed to light
SMILES: Cc1c[nH]c2ccccc12 [3-methylindole]
